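Exposure lasted 48 hours, with cells grown in 96-well plates and compounds tested at five concentrations. TGI: concentration producing complete growth inhibition.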
Experiments:
Experiment in all cases: NCI-60 cell line screen, 48 h
[1] = tested on: SW-620 colon
[2] = tested on: SNB-78 CNS
[3] = tested on: OVCAR-8 ovarian
[4] = tested on: NCI-H460 lung
[5] = tested on: RPMI-8226 leukemia
[6] = tested on: ACHN renal
[7] = tested on: HCT-15 colon
[8] = tested on: DU-145 prostate
[9] = tested on: SNB-19 CNS
[10] = tested on: U251 CNS
[11] = tested on: CCRF-CEM leukemia
[12] = tested on: MOLT-4 leukemia
[13] = tested on: SN12C renal
[14] = tested on: NCI-H23 lung
[15] = tested on: K-562 leukemia
[16] = tested on: M14 melanoma
[17] = tested on: TK-10 renal
[18] = tested on: HL-60(TB) leukemia
[19] = tested on: MDA-N
[20] = tested on: SK-MEL-5 melanoma
[21] = tested on: SK-OV-3 ovarian
[22] = tested on: PC-3 prostate
[23] = tested on: SF-295 CNS
[24] = tested on: HOP-62 NSCLC
[25] = tested on: SR leukemia
[26] = tested on: M19-MEL melanoma
[27] = tested on: HT29 colon
[28] = tested on: MCF7 breast
[29] = tested on: UO-31 renal
[30] = tested on: DMS 273 small cell lung
[31] = tested on: NCI-H522 lung
[32] = tested on: HS 578T breast
[33] = tested on: KM20L2 colon
[34] = tested on: DLD-1 colon
[35] = tested on: SNB-75 CNS
[36] = tested on: HOP-92 NSCLC
[37] = tested on: SK-MEL-2 melanoma
[38] = tested on: T-47D breast
[39] = tested on: SK-MEL-28 melanoma
[40] = tested on: CAKI-1 renal
[41] = tested on: MALME-3M melanoma
[42] = tested on: RXF 393 renal
[43] = tested on: LOX IMVI melanoma
[44] = tested on: A549 NSCLC
[45] = tested on: MDA-MB-231 breast
[46] = tested on: SF-268 CNS
[47] = tested on: OVCAR-5 ovarian
[48] = tested on: UACC-62 melanoma
[49] = tested on: OVCAR-3 ovarian
[50] = tested on: HCC-2998 colon
[51] = tested on: BT-549 breast
[52] = tested on: 786-0 renal
[53] = tested on: OVCAR-4 ovarian
[54] = tested on: COLO 205 colon
[55] = tested on: A498 renal
[56] = tested on: EKVX NSCLC
[57] = tested on: IGROV1 ovarian
[58] = tested on: KM12 colon
[59] = tested on: MDA-MB-435
[60] = tested on: NCI/ADR-RES ovarian
[61] = tested on: UACC-257 melanoma
[62] = tested on: NCI-H226 lung
[63] = tested on: HCT-116 colon
[64] = tested on: SF-539 CNS
[65] = tested on: LXFL 529 NSCLC
[66] = tested on: DMS 114 small cell lung

SMILES: Cc1nc2ccc(N=Nc3c(O)ccc4ccccc34)cc2[nH]1
- TGI [1]: > 70 µM
- TGI [2]: > 100 µM
- TGI [3]: 69.6 µM
- TGI [4]: > 87.7 µM
- TGI [5]: > 82.8 µM
- TGI [6]: > 57.2 µM
- TGI [7]: > 63.5 µM
- TGI [8]: > 100 µM
- TGI [9]: > 100 µM
- TGI [10]: > 67.9 µM
- TGI [11]: > 58.3 µM
- TGI [12]: 66.2 µM
- TGI [13]: > 74.9 µM
- TGI [14]: > 100 µM
- TGI [15]: > 100 µM
- TGI [16]: > 81.5 µM
- TGI [17]: > 100 µM
- TGI [18]: 46.8 µM
- TGI [19]: 36.7 µM
- TGI [20]: > 65.1 µM
- TGI [21]: > 100 µM
- TGI [22]: 48.1 µM
- TGI [23]: > 100 µM
- TGI [24]: > 100 µM
- TGI [25]: 55.4 µM
- TGI [26]: 42.7 µM
- TGI [27]: > 67.2 µM
- TGI [28]: 44.9 µM
- TGI [29]: > 84.8 µM
- TGI [30]: 33.5 µM
- TGI [31]: 54.3 µM
- TGI [32]: 61.9 µM
- TGI [33]: > 100 µM
- TGI [34]: 66.2 µM
- TGI [35]: > 100 µM
- TGI [36]: 42.8 µM
- TGI [37]: > 76.8 µM
- TGI [38]: 41 µM
- TGI [39]: > 100 µM
- TGI [40]: 49.8 µM
- TGI [41]: > 66.5 µM
- TGI [42]: > 57.9 µM
- TGI [43]: 32.4 µM
- TGI [44]: > 78.7 µM
- TGI [45]: 53.6 µM
- TGI [46]: > 100 µM
- TGI [47]: > 100 µM
- TGI [48]: > 63.4 µM
- TGI [49]: > 56.2 µM
- TGI [50]: > 70.5 µM
- TGI [51]: 59.7 µM
- TGI [52]: 54.4 µM
- TGI [53]: 35.1 µM
- TGI [54]: > 66.6 µM
- TGI [55]: > 92.7 µM
- TGI [56]: > 83.6 µM
- TGI [57]: > 67 µM
- TGI [58]: > 100 µM
- TGI [59]: 45.9 µM
- TGI [60]: 60.2 µM
- TGI [61]: > 63.5 µM
- TGI [62]: > 100 µM
- TGI [63]: > 58.4 µM
- TGI [64]: > 62.3 µM
- TGI [65]: 37.3 µM
- TGI [66]: 63 µM

Reference: PubChem BioAssay (NCI)
